Measurements taken from patent publication US9023789B2, “Amylin analogs and pharmaceutical compositions thereof” (Novo Nordisk A/S, priority 2012, dated 2015).
pEC50, pIC50: −log10 of the molar value. Numbered stars: 1 amine (or outer) side, 2 acyl side, 3 side chain; on linkers, the order of the positions; unused ones are H or OH. Bridge positions count the residues as written; N and C are the ends. Side chains are listed from the residue outwards. Peptide text beside a SMILES is read from it. * marks the point of attachment. C20 diacid = O=C(O)CCCCCCCCCCCCCCCCCCC(=O)*; γGlu = O=C(O)[C@H](CCC(=O)[*:2])N[*:1]; AEEA = NCCOCCOCC(=O)O

Columns and labels:
[1] = target: T1, human calcitonin (a) receptor in BHK570 cells (Homo sapiens, UniProt P30988); assay: ASSAY (II)a functional assay, human calcitonin receptor (CRE luciferase); assay type: cell-based; conditions: read-out: hCTR funct. EC50
T1 construct: expressed in transfected cells
T1 sequence (P30988 25-474): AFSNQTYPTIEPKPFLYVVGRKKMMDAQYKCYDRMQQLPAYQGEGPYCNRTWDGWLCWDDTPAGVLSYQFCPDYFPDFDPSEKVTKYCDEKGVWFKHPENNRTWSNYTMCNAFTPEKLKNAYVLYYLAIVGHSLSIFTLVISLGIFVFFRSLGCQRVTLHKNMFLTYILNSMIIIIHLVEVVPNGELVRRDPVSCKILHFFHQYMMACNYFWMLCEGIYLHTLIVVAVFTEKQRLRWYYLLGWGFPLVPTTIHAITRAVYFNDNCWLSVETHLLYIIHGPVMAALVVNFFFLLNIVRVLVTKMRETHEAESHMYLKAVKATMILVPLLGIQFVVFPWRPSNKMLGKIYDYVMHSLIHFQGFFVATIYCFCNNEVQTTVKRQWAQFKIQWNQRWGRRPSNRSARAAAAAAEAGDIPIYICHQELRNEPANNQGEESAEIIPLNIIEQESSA
Summary of the method: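 BHK CRE-luc cells, calcitonin (a) receptor ± RAMP-3 (amylin 3(a)); overnight seeding, 37° C/5% CO2. 3 h ligand exposure, DMEM/10% FBS/10 mM Hepes pH 7.4. LucLite 30 min RT; luminescence (SPC).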

[2] = target: T2, human calcitonin receptor (Homo sapiens, UniProt P30988); assay: ASSAY (VII) binding to the human calcitonin receptor (SPA, 125I-Calcitonin); conditions: read-out: hCTR bind IC50;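 note: cell membranes (35 ng/µL) combined with SPA beads in 40 µL of pH 7.4 Hepes buffer, 384-well format, signal counted on a TopCounter instrument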
T2 construct: expressed in transfected cells
T2 sequence (P30988 25-474): T1 sequence (P30988 25-474)

Compound	pEC50 [1]	pIC50 [2]
CC[C@H](C)[C@H](NC(=O)[C@H](C)NC(=O)CNC(=O)[C@H](Cc1ccccc1)NC(=O)[C@H](CC(N)=O)NC(=O)[C@@H]1CCCN1C(=O)[C@H](CO)NC(=O)[C@H](CO)NC(=O)[C@H](Cc1c[nH]cn1)NC(=O)[C@H](CCCNC(=N)N)NC(=O)[C@H](CC(C)C)NC(=O)[C@H](Cc1ccccc1)NC(=O)[C@H](Cc1c[nH]cn1)NC(=O)[C@H](C)NC(=O)[C@H](CC(C)C)NC(=O)[C@H](CCCNC(=N)N)NC(=O)[C@H](CCC(N)=O)NC(=O)[C@@H](NC(=O)[C@H](C)NC(=O)[C@@H]1CSSC[C@H](NC(=O)[C@@H](N)CCCCNC(=O)CC[C@H](NC(=O)CCCCCCCCCCCCCCCCCCC(=O)O)C(=O)O)C(=O)N[C@@H](CC(N)=O)C(=O)N[C@@H]([C@@H](C)O)C(=O)N[C@@H](C)C(=O)N[C@@H]([C@@H](C)O)C(=O)N1)[C@@H](C)O)C(=O)N1CCC[C@H]1C(=O)N[C@@H](CO)C(=O)N[C@@H](CO)C(=O)N[C@H](C(=O)N[C@@H](CC(N)=O)C(=O)N[C@H](C(=O)NCC(=O)N[C@@H](CO)C(=O)N[C@@H](CC(N)=O)C(=O)N[C@H](C(=O)N[C@@H](Cc1ccc(O)cc1)C(N)=O)[C@@H](C)O)C(C)C)[C@@H](C)O [Example 70] (H-K([γGlu-C20 diacid])CNTATCATQRLAHFLRHSSPNFGAIPSSTNVGSNTY-NH2; disulfide 2-7; N-terminus assumed)	9.15	7.99
CC[C@H](C)[C@H](NC(=O)[C@H](C)NC(=O)CNC(=O)[C@H](Cc1ccccc1)NC(=O)[C@H](CC(N)=O)NC(=O)[C@@H]1CCCN1C(=O)[C@H](CO)NC(=O)[C@H](CO)NC(=O)[C@H](Cc1c[nH]cn1)NC(=O)[C@H](CCCNC(=N)N)NC(=O)[C@H](CC(C)C)NC(=O)[C@H](Cc1ccccc1)NC(=O)[C@H](CC(N)=O)NC(=O)[C@H](C)NC(=O)[C@H](CC(C)C)NC(=O)[C@H](CCCNC(=N)N)NC(=O)[C@H](CCC(N)=O)NC(=O)[C@@H](NC(=O)[C@H](C)NC(=O)[C@@H]1CSSC[C@H](NC(=O)[C@@H](N)CCCCNC(=O)COCCOCCNC(=O)CC[C@H](NC(=O)CCCCCCCCCCCCCCCCCCC(=O)O)C(=O)O)C(=O)N[C@@H](CC(N)=O)C(=O)N[C@@H]([C@@H](C)O)C(=O)N[C@@H](C)C(=O)N[C@@H]([C@@H](C)O)C(=O)N1)[C@@H](C)O)C(=O)N1CCC[C@H]1C(=O)N[C@@H](CO)C(=O)N[C@@H](CO)C(=O)N[C@H](C(=O)N[C@@H](CC(N)=O)C(=O)N[C@H](C(=O)NCC(=O)N[C@@H](CCCNC(=N)N)C(=O)N[C@@H](CC(N)=O)C(=O)N[C@H](C(=O)N[C@@H](Cc1ccc(O)cc1)C(N)=O)[C@@H](C)O)C(C)C)[C@@H](C)O [Example 78] (H-K([AEEA-γGlu-C20 diacid])CNTATCATQRLANFLRHSSPNFGAIPSSTNVGRNTY-NH2; disulfide 2-7 (inferred))	8.09	7.44
CC[C@H](C)[C@H](NC(=O)[C@H](C)NC(=O)CNC(=O)[C@H](Cc1ccccc1)NC(=O)[C@H](CC(N)=O)NC(=O)[C@@H]1CCCN1C(=O)[C@H](CO)NC(=O)[C@H](CO)NC(=O)[C@H](Cc1c[nH]cn1)NC(=O)[C@H](CCCNC(=N)N)NC(=O)[C@H](CC(C)C)NC(=O)[C@H](Cc1ccccc1)NC(=O)[C@H](CC(N)=O)NC(=O)[C@H](C)NC(=O)[C@H](CC(C)C)NC(=O)[C@H](CCCNC(=N)N)NC(=O)[C@H](CCC(N)=O)NC(=O)[C@@H](NC(=O)[C@H](C)NC(=O)[C@@H]1CSSC[C@H](NC(=O)[C@@H](N)CCCCNC(=O)COCCOCCNC(=O)CC[C@H](NC(=O)CCCCCCCCCCCCCCCCCCC(=O)O)C(=O)O)C(=O)N[C@@H](CC(N)=O)C(=O)N[C@@H]([C@@H](C)O)C(=O)N[C@@H](C)C(=O)N[C@@H]([C@@H](C)O)C(=O)N1)[C@@H](C)O)C(=O)N1CCC[C@H]1C(=O)N[C@@H](CO)C(=O)N1CCC[C@H]1C(=O)N[C@H](C(=O)N1CCC[C@H]1C(=O)N[C@H](C(=O)NCC(=O)N[C@@H](CO)C(=O)N[C@@H](CC(N)=O)C(=O)N[C@H](C(=O)N[C@@H](Cc1ccc(O)cc1)C(N)=O)[C@@H](C)O)C(C)C)[C@@H](C)O [Example 54] (H-K([AEEA-γGlu-C20 diacid])CNTATCATQRLANFLRHSSPNFGAIPSPTPVGSNTY-NH2; disulfide 2-7; N-terminus assumed)	9.01	8.36
CC[C@H](C)[C@H](NC(=O)[C@H](C)NC(=O)CNC(=O)[C@H](Cc1ccccc1)NC(=O)[C@H](CC(N)=O)NC(=O)[C@@H]1CCCN1C(=O)[C@H](CO)NC(=O)[C@H](CO)NC(=O)[C@H](Cc1c[nH]cn1)NC(=O)[C@H](CCCNC(=N)N)NC(=O)[C@H](CC(C)C)NC(=O)[C@H](Cc1ccccc1)NC(=O)[C@H](CC(N)=O)NC(=O)[C@H](C)NC(=O)[C@H](CC(C)C)NC(=O)[C@H](CCCNC(=N)N)NC(=O)[C@H](CCC(N)=O)NC(=O)[C@@H](NC(=O)[C@H](C)NC(=O)[C@@H]1CSSC[C@H](NC(=O)[C@@H](N)CCCCNC(=O)COCCOCCNC(=O)CC[C@H](NC(=O)CCCCCCCCCCCCCCCCCCC(=O)O)C(=O)O)C(=O)N[C@@H](CC(N)=O)C(=O)N[C@@H]([C@@H](C)O)C(=O)N[C@@H](C)C(=O)N[C@@H]([C@@H](C)O)C(=O)N1)[C@@H](C)O)C(=O)N1CCC[C@H]1C(=O)N[C@@H](CO)C(=O)N[C@@H](CO)C(=O)N[C@H](C(=O)N[C@@H](CC(N)=O)C(=O)N[C@H](C(=O)NCC(=O)N[C@@H](CO)C(=O)N[C@@H](CC(N)=O)C(=O)N[C@H](C(=O)N[C@@H](Cc1ccc(O)cc1)C(N)=O)[C@@H](C)O)C(C)C)[C@@H](C)O [Example 41]	8.36	7.67

The next lines start with the values.

pEC50 [1]	pIC50 [2]	Compound
8.40	7.44	CC[C@H](C)[C@H](NC(=O)[C@H](C)NC(=O)CNC(=O)[C@H](Cc1ccccc1)NC(=O)[C@H](CC(N)=O)NC(=O)[C@@H]1CCCN1C(=O)[C@H](CO)NC(=O)[C@H](CO)NC(=O)[C@H](Cc1c[nH]cn1)NC(=O)[C@H](CCCNC(=N)N)NC(=O)[C@H](CC(C)C)NC(=O)[C@H](Cc1ccccc1)NC(=O)[C@H](CC(N)=O)NC(=O)[C@H](C)NC(=O)[C@H](CC(C)C)NC(=O)[C@H](CCCNC(=N)N)NC(=O)[C@H](CCC(N)=O)NC(=O)[C@@H](NC(=O)[C@H](C)NC(=O)[C@@H]1CSSC[C@H](NC(=O)[C@@H](N)CCCCNC(=O)CC[C@H](NC(=O)CCCCCCCCCCCCCCCCCCC(=O)O)C(=O)O)C(=O)N[C@@H](CC(N)=O)C(=O)N[C@@H]([C@@H](C)O)C(=O)N[C@@H](C)C(=O)N[C@@H]([C@@H](C)O)C(=O)N1)[C@@H](C)O)C(=O)N1CCC[C@H]1C(=O)N[C@@H](CO)C(=O)N[C@@H](CO)C(=O)N[C@H](C(=O)N[C@@H](CC(N)=O)C(=O)N[C@H](C(=O)NCC(=O)N[C@@H](CCCNC(=N)N)C(=O)N[C@@H](CC(N)=O)C(=O)N[C@H](C(=O)N[C@@H](Cc1ccc(O)cc1)C(N)=O)[C@@H](C)O)C(C)C)[C@@H](C)O [Example 79] (H-K([γGlu-C20 diacid])CNTATCATQRLANFLRHSSPNFGAIPSSTNVGRNTY-NH2; disulfide 2-7 (inferred); N-terminus assumed)
9.14	8.66	CC[C@H](C)[C@H](NC(=O)[C@H](C)NC(=O)CNC(=O)[C@H](Cc1ccccc1)NC(=O)[C@H](CC(N)=O)NC(=O)[C@@H]1CCCN1C(=O)[C@H](CO)NC(=O)[C@H](CO)NC(=O)[C@H](Cc1c[nH]cn1)NC(=O)[C@H](CCCNC(=N)N)NC(=O)[C@H](CC(C)C)NC(=O)[C@H](Cc1ccccc1)NC(=O)[C@H](CC(N)=O)NC(=O)[C@H](C)NC(=O)[C@H](CC(C)C)NC(=O)[C@H](CCCNC(=N)N)NC(=O)[C@H](CCC(N)=O)NC(=O)[C@@H](NC(=O)[C@H](C)NC(=O)[C@@H]1CSSC[C@H](NC(=O)[C@@H](N)CCCCNC(=O)COCCOCCNC(=O)CC[C@H](NC(=O)CCCCCCCCCCCCCCCCCCC(=O)O)C(=O)O)C(=O)N[C@@H](CC(N)=O)C(=O)N[C@@H]([C@@H](C)O)C(=O)N[C@@H](C)C(=O)N[C@@H]([C@@H](C)O)C(=O)N1)[C@@H](C)O)C(=O)N1CCC[C@H]1C(=O)N1CCC[C@H]1C(=O)N[C@@H](CO)C(=O)N[C@H](C(=O)N[C@@H](CC(N)=O)C(=O)N[C@H](C(=O)NCC(=O)N1CCC[C@H]1C(=O)N[C@@H](CC(N)=O)C(=O)N[C@H](C(=O)N[C@@H](Cc1ccc(O)cc1)C(N)=O)[C@@H](C)O)C(C)C)[C@@H](C)O [Example 55] (H-K([AEEA-γGlu-C20 diacid])CNTATCATQRLANFLRHSSPNFGAIPPSTNVGPNTY-NH2; disulfide 2-7; N-terminus assumed)
9.18	8.86	CC[C@H](C)[C@H](NC(=O)[C@H](C)NC(=O)CNC(=O)[C@H](Cc1ccccc1)NC(=O)[C@H](CC(N)=O)NC(=O)[C@@H]1CCCN1C(=O)[C@H](CO)NC(=O)[C@H](CO)NC(=O)[C@H](Cc1c[nH]cn1)NC(=O)[C@H](CCCNC(=N)N)NC(=O)[C@H](CC(C)C)NC(=O)[C@H](Cc1ccccc1)NC(=O)[C@H](CC(N)=O)NC(=O)[C@H](C)NC(=O)[C@H](CC(C)C)NC(=O)[C@H](CCCNC(=N)N)NC(=O)[C@H](CCC(N)=O)NC(=O)[C@@H](NC(=O)[C@H](C)NC(=O)[C@@H]1CSSC[C@H](NC(=O)[C@@H](N)CCCCNC(=O)COCCOCCNC(=O)CC[C@H](NC(=O)CCCCCCCCCCCCCCCCCCC(=O)O)C(=O)O)C(=O)N[C@@H](CC(N)=O)C(=O)N[C@@H]([C@@H](C)O)C(=O)N[C@@H](C)C(=O)N[C@@H]([C@@H](C)O)C(=O)N1)[C@@H](C)O)C(=O)N1CCC[C@H]1C(=O)N[C@@H](CO)C(=O)N[C@@H](CO)C(=O)N[C@H](C(=O)N[C@@H](CC(N)=O)C(=O)N[C@H](C(=O)NCC(=O)N1CCC[C@H]1C(=O)N[C@@H](CC(N)=O)C(=O)N[C@H](C(=O)N[C@@H](Cc1ccc(O)cc1)C(N)=O)[C@@H](C)O)C(C)C)[C@@H](C)O [Example 50]
